Data: patent US8481028B2, “Compositions for preparing a coffee beverage comprising hydrolysed chlorogenic acid” (Nestec S.A., priority 2008, dated 2013)

Tests used:
[1] = system: Bifidobacterium lactis BB12 (CNCM I-3446); assay: Treatment of coffee extracts with bacteria cells (B. lactis), HPLC
Procedure: (§1) Coffee samples were diluted to 1% w/w and analyzed by RP-HPLC on a CC 250/4 Nucleosil 100-5-C18 column (Macherey-Nagel). The eluent system was Millipore water, 0.1% TFA and CH3CN at a flow rate of 1 mL/min. The method allowed the simultaneous determination of caffeoyl quinic acids (CQA), feruloyl quinic acids (FQA), di-caffeoyl quinic acids (diCQA), feruloyl quinic acid-lactones, caffeic acid (CA) and ferulic acid (FA) (absorbance at 325 nm) using external standard calibration curves. Results were expressed relative to the reference at time 0 (t0) or to the reference at the same time without bacteria.
(§2) Tested strains were harvested (centrifugation at 5000 g for 10 min) after having well reached stationary phase, corresponding to 16 hours of incubation in culture medium at 37° C. in anaerobic atmosphere without agitation. For a first activation of the strains, frozen stock cultures were inoculated in fresh media and grown overnight. This pre-culture was used to inoculate the culture.
(§3) After culture of bacteria and centrifugation, the pellets were resuspended in phosphate buffer (pH 7.0) at a concentration of 0.61 g/ml. To 200 μl of this cells preparation, 800 μl of a coffee solution (3%) was added and the mixture was incubated at 37° C. for 4 h, 16 h and 24 h.

[2] = system: spray-dried preparation of Lactobacillus johnsonii (CNCM I-1225); assay: Treatment of NESCAFE PROTECT with spray-dried preparation of L. johnsonii, HPLC
Procedure: (§4) To this solution, 10 mg of a spray-dried preparation of Lactobacillus johnsonii (CNCM I-1225) (3.3 E9 cfu/g) were added. The mixture was then incubated at 37° C. and samples were withdrawn at different reaction times. After centrifugation (3000 g, 5 min) and filtration (0.45 μm pore size syringe filters, Millipore SLHA 025 BS) the samples were analysed by HPLC.
as §1

[3] = system: Lactobacillus johnsonii (CNCM I-1225) extract (lysed cells); assay: Treatment of NESCAFE PROTECT with L. johnsonii extract (lysed cells), HPLC; assay type: biochemical
Procedure: Cells of L. johnsonii (CNCM I-1225) were grown (7.0 E08 cfu/ml) and centrifuged (5000 g, 10 min), the pellets were resuspended in phosphate buffer (50 mM, pH 7.0) at a concentration of 0.61 g/ml. The cells were then lysed using the glass-beads method. 600 μl of cells preparation were put in screw-cap tubes and 600 μl of glass-beads were added at 0° C. The tubes were then put into a Mini-Beadbeater for 1 min of intense shaking, cooled in ice, and put another 1 min in the Mini-Beadbeater. […] Samples were withdrawn at different reaction times, centrifuged (3000 g, 5 min), filtered through 0.45 μm pore size syringe filters (Millipore SLHA 025 BS) and analysed by HPLC.
as §1

[4] = system: Lactobacillus johnsonii (CNCM I-1225) fresh cells; assay: Treatment of NESCAFE PROTECT with L. johnsonii fresh cells, HPLC of chlorogenic and phenolic acids
Procedure: Cells of L. johnsonii (CNCM I-1225) were grown (7.0 E08 cfu/ml) and centrifuged (5000 g, 10 min), the pellets were resuspended in phosphate buffer (50 mM, pH 7.0) at a concentration of 0.61 g/ml. […] Samples were withdrawn at different reaction times, centrifuged (3000 g, 5 min) and filtered through 0.45 μm pore size syringe filters (Millipore SLHA 025 BS) and analysed by HPLC.
A reaction control was run in parallel under the same reaction conditions but without bacteria.
as §1

[5] = system: Lactobacillus johnsonii (CNCM I-1225); assay: Treatment of coffee extracts with bacteria cells (L. johnsonii), HPLC
Procedure: as §1, §2, §3

[6] = system: concentrated preparation of Lactobacillus johnsonii (CNCM I-1225); assay: Treatment of NESCAFE with concentrated preparation of L. johnsonii, HPLC
Procedure: 400 mg of NESCAFE SPECIAL FILTRE® (a dried extract of roasted coffee beans) were dissolved in 1 ml of boiling water and the solution was cooled to 37° C. at room temperature. To 250 μl of this coffee solution, different amounts of concentrated preparation of Lactobacillus johnsonii (50 μl, 100 μl, 350 μl, 750 μl) were added and the volume was adjusted to 1 ml with water. The mixtures were than incubated at 37° C. for 2 h and 4 h. After centrifugation (3000 g, 5 min) and filtration the samples were analysed by HPLC.
as §1

[7] = system: spray-dried preparation of Lactobacillus johnsonii (CNCM I-1225); assay: Treatment of green coffee extract with spray-dried preparation of L. johnsonii, HPLC
Procedure: as §4, with “30 mg of a dried green coffee extract was dissolved in 1 ml phosphate buffer (50 mM, pH 7.0) or in 1 ml water. To” for “To”, “johnsonii” for “johnsonii (CNCM I-1225)”, “cfu/g) was” for “cfu/g) were”
as §1

Chlorogenate esterase = assay: Incubation of coffee extracts with chlorogenate esterase, HPLC; assay type: biochemical, Aspergillus japonicus
Procedure: as §1
Chlorogenate esterase (24 U/g), derived from Aspergillus japonicus (Kikkoman, Japan). Tannase from Aspergillus oryzae (Kikkoman, Japan) Preparation of Bacteria Cells
A solution of chlorogenate esterase (25 mg) in 200 μl phosphate buffer (pH 7.0) was added to 800 μl of a coffee solution (3%). The mixture was then incubated at 37° C. for 4 h, 16 h and 24 h. After reaction time, the enzymatic activity was stopped by heat treatment (3 min, 90° C.) and the mixture was filtered before analysis.

[8] = NESCAFE PROTECT + Bifidobacterium lactis, 4 h
[9] = NESCAFE PROTECT + Bifidobacterium lactis, 16 h
[10] = NESCAFE PROTECT + Bifidobacterium lactis, 24 h
[11] = green coffee extract + Bifidobacterium lactis, 4 h
[12] = green coffee extract + Bifidobacterium lactis, 16 h
[13] = green coffee extract + Bifidobacterium lactis, 24 h
[14] = NESCAFE PROTECT + Lactobacillus johnsonii, 4 h
[15] = NESCAFE PROTECT + Lactobacillus johnsonii, 16 h
[16] = NESCAFE PROTECT + Lactobacillus johnsonii, 24 h
[17] = green coffee extract + Lactobacillus johnsonii, 4 h
[18] = green coffee extract + Lactobacillus johnsonii, 16 h
[19] = green coffee extract + Lactobacillus johnsonii, 24 h
[20] = NESCAFE PROTECT + Chlorogenate esterase, 4 h
[21] = NESCAFE PROTECT + Chlorogenate esterase, 16 h
[22] = NESCAFE PROTECT + Chlorogenate esterase, 24 h
[23] = green coffee extract + Chlorogenate esterase, 4 h
[24] = green coffee extract + Chlorogenate esterase, 16 h
[25] = green coffee extract + Chlorogenate esterase, 24 h

## O=C(O)/C=C/c1ccc(O)c(O)c1 [CA, caffeic acid]
[1]; [8]
  % relative to untreated control at t = 0: 968%
[1]; [9]
  % relative to untreated control at t = 0: 2258%
[1]; [10]
  % relative to untreated control at t = 0: 2840%
[1]; [11]
  % relative to untreated control at t = 0: 1521%
[1]; [12]
  % relative to untreated control at t = 0: 4182%
[1]; [13]
  % relative to untreated control at t = 0: 5283%
[2]; 2 h
  % relative to untreated control at t = 0: 3598%
[2]; 6 h
  % relative to untreated control at t = 0: 6140%
[2]; 24 h
  % relative to untreated control at t = 0: 7879%
[3]; 2 h, cell preparation 100.0 uL
  Concentration in % relative to untreated reference at t = 0: 10729%
[3]; 2 h, cell preparation 350.0 uL
  Concentration in % relative to untreated reference at t = 0: 13901%
[3]; 6 h, cell preparation 100.0 uL
  Concentration in % relative to untreated reference at t = 0: 12581%
[3]; 6 h, cell preparation 350.0 uL
  Concentration in % relative to untreated reference at t = 0: 16300%
[4]; 6 h, cell preparation 100 uL
  Concentration in % relative to untreated reference at t = 0: 10111%
[4]; 6 h, cell preparation 350 uL
  Concentration in % relative to untreated reference at t = 0: 14282%
[4]; 6 h, cell preparation 750 uL
  Concentration in % relative to untreated reference at t = 0: 13215%
[4]; 24 h, cell preparation 100 uL
  Concentration in % relative to untreated reference at t = 0: 13661%
[4]; 24 h, cell preparation 350 uL
  Concentration in % relative to untreated reference at t = 0: 15981%
[4]; 24 h, cell preparation 750 uL
  Concentration in % relative to untreated reference at t = 0: 13238%
[5]; [14]
  % relative to untreated control at t = 0: 7942%
[5]; [15]
  % relative to untreated control at t = 0: 9429%
[5]; [16]
  % relative to untreated control at t = 0: 9933%
[5]; [17]
  % relative to untreated control at t = 0: 12505%
[5]; [18]
  % relative to untreated control at t = 0: 17148%
[5]; [19]
  % relative to untreated control at t = 0: 18107%
[6]; cell amount 50 μL/1 mL, 2 h
  % relative to untreated control at t = 0: 1737%
[6]; cell amount 50 μL/1 mL, 4 h
  % relative to untreated control at t = 0: 1763%
[6]; cell amount 100 μL/1 mL, 2 h
  % relative to untreated control at t = 0: 2885%
[6]; cell amount 100 μL/1 mL, 4 h
  % relative to untreated control at t = 0: 2803%
[6]; cell amount 350 μL/1 mL, 2 h
  % relative to untreated control at t = 0: 5752%
[6]; cell amount 350 μL/1 mL, 4 h
  % relative to untreated control at t = 0: 4491%
[6]; cell amount 750 μL/1 mL, 2 h
  % relative to untreated control at t = 0: 7292%
[6]; cell amount 750 μL/1 mL, 4 h
  % relative to untreated control at t = 0: 5514%
[7]; 4 h
  % relative to untreated control at t = 0: 2673%
[7]; 6 h
  % relative to untreated control at t = 0: 3762%
[7]; 16 h
  % relative to untreated control at t = 0: 5182%
[7]; 24 h
  % relative to untreated control at t = 0: 6145%
Chlorogenate esterase; [20]
  % relative to untreated control at t = 0: 10879%
Chlorogenate esterase; [21]
  % relative to untreated control at t = 0: 10198%
Chlorogenate esterase; [22]
  % relative to untreated control at t = 0: 10750%
Chlorogenate esterase; [23]
  % relative to untreated control at t = 0: 18917%
Chlorogenate esterase; [24]
  % relative to untreated control at t = 0: 17275%
Chlorogenate esterase; [25]
  % relative to untreated control at t = 0: 18318%

## di-caffeoyl quinic acids [diCQA]
[1]; [8]
  % relative to untreated control at t = 0: 91%
[1]; [9]
  % relative to untreated control at t = 0: 72%
[1]; [10]
  % relative to untreated control at t = 0: 67%
[1]; [11]
  % relative to untreated control at t = 0: 85%
[1]; [12]
  % relative to untreated control at t = 0: 70%
[1]; [13]
  % relative to untreated control at t = 0: 64%
[3]; 2 h, cell preparation 100.0 uL
  Concentration in % relative to untreated reference at t = 0: 8%
[3]; 2 h, cell preparation 350.0 uL
  Concentration in % relative to untreated reference at t = 0: 1%
[3]; 6 h, cell preparation 100.0 uL
  Concentration in % relative to untreated reference at t = 0: 1%
[3]; 6 h, cell preparation 350.0 uL
  Concentration in % relative to untreated reference at t = 0: 1%
[4]; 6 h, cell preparation 100 uL
  Concentration in % relative to untreated reference at t = 0: 23%
[4]; 6 h, cell preparation 350 uL
  Concentration in % relative to untreated reference at t = 0: 0%
[4]; 6 h, cell preparation 750 uL
  Concentration in % relative to untreated reference at t = 0: 0%
[4]; 24 h, cell preparation 100 uL
  Concentration in % relative to untreated reference at t = 0: 2%
[4]; 24 h, cell preparation 350 uL
  Concentration in % relative to untreated reference at t = 0: 0%
[4]; 24 h, cell preparation 750 uL
  Concentration in % relative to untreated reference at t = 0: 0%
[5]; [14]
  % relative to untreated control at t = 0: 18%
[5]; [15]
  % relative to untreated control at t = 0: 2%
[5]; [16]
  % relative to untreated control at t = 0: 2%
[5]; [17]
  % relative to untreated control at t = 0: 35%
[5]; [18]
  % relative to untreated control at t = 0: 6%
[5]; [19]
  % relative to untreated control at t = 0: 3%
[6]; cell amount 50 μL/1 mL, 2 h
  % relative to untreated control at t = 0: 86%
[6]; cell amount 50 μL/1 mL, 4 h
  % relative to untreated control at t = 0: 75%
[6]; cell amount 100 μL/1 mL, 2 h
  % relative to untreated control at t = 0: 68%
[6]; cell amount 100 μL/1 mL, 4 h
  % relative to untreated control at t = 0: 56%
[6]; cell amount 350 μL/1 mL, 2 h
  % relative to untreated control at t = 0: 23%
[6]; cell amount 350 μL/1 mL, 4 h
  % relative to untreated control at t = 0: 15%
[6]; cell amount 750 μL/1 mL, 2 h
  % relative to untreated control at t = 0: 6%
[6]; cell amount 750 μL/1 mL, 4 h
  % relative to untreated control at t = 0: 6%
[7]; 4 h
  % relative to untreated control at t = 0: 67%
[7]; 6 h
  % relative to untreated control at t = 0: 53%
[7]; 16 h
  % relative to untreated control at t = 0: 32%
[7]; 24 h
  % relative to untreated control at t = 0: 20%
Chlorogenate esterase; [20]
  % relative to untreated control at t = 0: 0%
Chlorogenate esterase; [21]
  % relative to untreated control at t = 0: 0%
Chlorogenate esterase; [22]
  % relative to untreated control at t = 0: 1%
Chlorogenate esterase; [23]
  % relative to untreated control at t = 0: 0%
Chlorogenate esterase; [24]
  % relative to untreated control at t = 0: 0%
Chlorogenate esterase; [25]
  % relative to untreated control at t = 0: 0%
